Results taken from ChEMBL document CHEMBL1201862, “PubChem BioAssay data set” (2004).
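In this assay, cells in 96-well plates receive the compound at five concentrations for 48 hours. Endpoints are linearly interpolated between the surrounding concentrations. GI50 marks 50% less growth.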 Activity calls are given as the source filed them. Cut-off read from the data, not from the text of the source: active = GI50 up to about 1.1 µM and inactive = higher.

Key:
Assay in all cases: DTP human tumour cell line panel, 48 h
786-0 = tested on: 786-0
A549 = tested on: A549
ACHN = tested on: ACHN
BT-549 = tested on: BT-549
CAKI-1 = tested on: CAKI-1
CCRF-CEM = tested on: CCRF-CEM
COLO 205 = tested on: COLO 205
DU-145 = tested on: DU-145
EKVX = tested on: EKVX
HCC 2998 = tested on: HCC 2998
HCT-116 = tested on: HCT-116
HCT-15 = tested on: HCT-15
HL-60 = tested on: HL-60
HOP-62 = tested on: HOP-62
HOP-92 = tested on: HOP-92
HT-29 = tested on: HT-29
Hs-578T = tested on: Hs-578T
IGROV-1 = tested on: IGROV-1
K562 = tested on: K562
KM12 = tested on: KM12
LOX IMVI = tested on: LOX IMVI
M14 = tested on: M14
MCF7 = tested on: MCF7
MDA-MB-231 = tested on: MDA-MB-231
MDA-MB-435 = tested on: MDA-MB-435
MDA-N = tested on: MDA-N
MOLT-4 = tested on: MOLT-4
Malme-3M = tested on: Malme-3M
NCI-H226 = tested on: NCI-H226
NCI-H23 = tested on: NCI-H23
NCI-H460 = tested on: NCI-H460
NCI-H522 = tested on: NCI-H522
NCI/ADR-RES = tested on: NCI/ADR-RES
OVCAR-3 = tested on: OVCAR-3
OVCAR-4 = tested on: OVCAR-4
OVCAR-5 = tested on: OVCAR-5
OVCAR-8 = tested on: OVCAR-8
PC-3 = tested on: PC-3
RPMI-8226 = tested on: RPMI-8226
RXF 393 = tested on: RXF 393
SF-268 = tested on: SF-268
SF-295 = tested on: SF-295
SF-539 = tested on: SF-539
SK-MEL-28 = tested on: SK-MEL-28
SK-MEL-2 = tested on: SK-MEL-2
SK-MEL-5 = tested on: SK-MEL-5
SK-OV-3 = tested on: SK-OV-3
SN12C = tested on: SN12C
SNB-19 = tested on: SNB-19
SNB-75 = tested on: SNB-75
SR = tested on: SR
SW-620 = tested on: SW-620
T47D = tested on: T47D
TK-10 = tested on: TK-10
U-251 = tested on: U-251
UACC-257 = tested on: UACC-257
UACC-62 = tested on: UACC-62
UO-31 = tested on: UO-31
A498 = tested on: A498

In the case of Cc1c(CNc2ccc(C(=O)NC(CCCNC(=O)c3ccccc3C(=O)O)C(=O)O)cc2)cnc2nc(N)nc(N)c12 (stereo not drawn), the GI50 (786-0) is reported as < 0.0001 µM (active), the GI50 (A549) is reported as 0.000419 µM (active) and the GI50 (ACHN) is reported as 0.000393 µM (active). The GI50 (BT-549) was 1.11 µM (active), the GI50 (CAKI-1) was 0.001 µM (active) and the GI50 (CCRF-CEM) was 0.00057 µM (active). The GI50 (COLO 205) was 0.00671 µM (active), the GI50 (DU-145) was 0.00091 µM (active) and the GI50 (EKVX) was 0.00248 µM (active). The GI50 (HCC 2998) was 0.000899 µM (active), the GI50 (HCT-116) was 0.000582 µM (active) and the GI50 (HCT-15) was 0.000453 µM. The GI50 (HL-60) was > 100 µM (inactive), the GI50 (HOP-62) was 0.387 µM (active) and the GI50 (HOP-92) was 2.09 µM (inactive). For the same compound, the GI50 (HT-29) was 0.001 µM (active), the GI50 (Hs-578T) was 0.1 µM (active) and the GI50 (IGROV-1) was 0.000518 µM (active). For the same compound, the GI50 (K562) was < 0.0001 µM (active), the GI50 (KM12) was 0.000521 µM (active) and the GI50 (LOX IMVI) was < 0.1 nM (active). For the same compound, the GI50 (M14) was 0.000656 µM (active), the GI50 (MCF7) was 0.0007 µM (active) and the GI50 (MDA-MB-231) was 3.23 µM (inactive). For the same compound, the GI50 (MDA-MB-435) was 0.000596 µM (active), the GI50 (MDA-N) was 0.001 µM (active) and the GI50 (MOLT-4) was 0.000566 µM (active). For the same compound, the GI50 (Malme-3M) was 0.468 µM (active), the GI50 (NCI-H226) was 0.000617 µM (active) and the GI50 (NCI-H23) was 0.00151 µM (active). The GI50 (NCI-H460) was 0.000381 µM (active), the GI50 (NCI-H522) was 0.00151 µM (active) and the GI50 (NCI/ADR-RES) was 0.000298 µM (active). For the same compound, the GI50 (OVCAR-3) was 0.0168 µM (active), the GI50 (OVCAR-4) was 1.55 µM (inactive) and the GI50 (OVCAR-5) was 0.199 µM (active). For the same compound, the GI50 (OVCAR-8) was 0.000324 µM (active), the GI50 (PC-3) was 2 µM (inactive) and the GI50 (RPMI-8226) was 0.000834 µM (active). For the same compound, the GI50 (RXF 393) was 0.382 µM (active), the GI50 (SF-268) was 0.000356 µM (active) and the GI50 (SF-295) was 0.000593 µM (active). For the same compound, the GI50 (SF-539) was 0.461 nM (active), the GI50 (SK-MEL-28) was 0.192 µM (active) and the GI50 (SK-MEL-2) was 1.22 µM (inactive). The GI50 (SK-MEL-5) was 0.000644 µM (active), the GI50 (SK-OV-3) was 0.00644 µM (active) and the GI50 (SN12C) was 0.00466 µM (active). For the same compound, the GI50 (SNB-19) was 0.01 µM (active), the GI50 (SNB-75) was 0.00222 µM (active) and the GI50 (SR) was 0.000452 µM (active). For the same compound, the GI50 (SW-620) was < 0.0001 µM (active), the GI50 (T47D) was 0.0615 µM (active) and the GI50 (TK-10) was 1.79 µM (inactive). The GI50 (U-251) was 0.00358 µM (active), the GI50 (UACC-257) was 0.785 µM (active) and the GI50 (UACC-62) was 0.000396 µM (active). The GI50 (UO-31) was 0.001 µM (active).
In the case of O=c1c2sc3ccccc3sc=2c(=O)c2c(Cl)c(Cl)c(Cl)c(Cl)c12, the GI50 (786-0) is reported as > 100 µM (inactive), the GI50 (A498) is reported as > 100 µM (inactive) and the GI50 (A549) is reported as > 100 µM (inactive). The GI50 (ACHN) was > 100 µM (inactive), the GI50 (BT-549) was > 100 µM (inactive) and the GI50 (CAKI-1) was > 100 µM (inactive). For the same compound, the GI50 (CCRF-CEM) was > 100 µM (inactive), the GI50 (COLO 205) was > 100 µM (inactive) and the GI50 (DU-145) was > 100 µM (inactive). The GI50 (EKVX) was > 100 µM (inactive), the GI50 (HCC 2998) was 96.2 µM (inactive) and the GI50 (HCT-116) was > 100 µM (inactive). The GI50 (HCT-15) was 39.7 µM, the GI50 (HOP-62) was > 100 µM (inactive) and the GI50 (HT-29) was > 100 µM (inactive). The GI50 (Hs-578T) was 38.4 µM (inactive), the GI50 (IGROV-1) was > 100 µM (inactive) and the GI50 (K562) was 34.8 µM (inactive). The GI50 (KM12) was > 100 µM (inactive), the GI50 (M14) was > 100 µM (inactive) and the GI50 (MCF7) was > 100 µM (inactive). For the same compound, the GI50 (MDA-MB-231) was > 100 µM (inactive), the GI50 (MDA-MB-435) was > 100 µM (inactive) and the GI50 (MDA-N) was > 100 µM (inactive). The GI50 (MOLT-4) was > 100 µM (inactive), the GI50 (Malme-3M) was > 100 µM (inactive) and the GI50 (NCI-H226) was > 100 µM (inactive). The GI50 (NCI-H23) was > 100 µM (inactive), the GI50 (NCI-H460) was > 100 µM (inactive) and the GI50 (NCI-H522) was > 100 µM (inactive). The GI50 (NCI/ADR-RES) was > 100 µM (inactive), the GI50 (OVCAR-3) was > 100 µM (inactive) and the GI50 (OVCAR-4) was > 100 µM (inactive). For the same compound, the GI50 (OVCAR-5) was > 100 µM (inactive), the GI50 (OVCAR-8) was > 100 µM (inactive) and the GI50 (PC-3) was > 100 µM (inactive). For the same compound, the GI50 (RPMI-8226) was 42 µM (inactive), the GI50 (RXF 393) was > 100 µM (inactive) and the GI50 (SF-268) was > 100 µM (inactive). For the same compound, the GI50 (SF-295) was > 100 µM (inactive), the GI50 (SK-MEL-28) was > 100 µM (inactive) and the GI50 (SK-MEL-2) was > 100 µM (inactive). The GI50 (SK-MEL-5) was > 100 µM (inactive), the GI50 (SK-OV-3) was > 100 µM (inactive) and the GI50 (SN12C) was > 100 µM (inactive). For the same compound, the GI50 (SNB-19) was > 100 µM (inactive), the GI50 (SNB-75) was > 100 µM (inactive) and the GI50 (SR) was > 100 µM (inactive). For the same compound, the GI50 (SW-620) was > 100 µM (inactive), the GI50 (T47D) was > 100 µM (inactive) and the GI50 (TK-10) was > 100 µM (inactive). The GI50 (U-251) was > 100 µM (inactive), the GI50 (UACC-257) was > 100 µM (inactive) and the GI50 (UACC-62) was > 100 µM (inactive). For the same compound, the GI50 (UO-31) was > 100 µM (inactive).
